Measurements reported in US8022206B2 (OSI Pharmaceuticals, LLC, priority 2008, dated 2011).

Assays:
MET (human) = MET (human) (Homo sapiens, UniProt P08581); test: MET (human) AlphaScreen kinase assay, Km of ATP; type: biochemical; conditions: AlphaScreen, Km of ATP; read-out: Met biochemical IC50
Outline: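 Human MET at lot-optimised concentration in 50 mM Tris pH 7.4 buffer with 1 mM DTT, compound at 1% DMSO final; enzyme starts the reaction, 60 min at RT.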

RON (human) = RON (human) (Homo sapiens, UniProt Q04912); test: RON (human) AlphaScreen kinase assay, Km of ATP; type: biochemical; conditions: AlphaScreen, Km of ATP; read-out: RON biochemical IC50
Sequence of RON (human) (Q04912 25-1400): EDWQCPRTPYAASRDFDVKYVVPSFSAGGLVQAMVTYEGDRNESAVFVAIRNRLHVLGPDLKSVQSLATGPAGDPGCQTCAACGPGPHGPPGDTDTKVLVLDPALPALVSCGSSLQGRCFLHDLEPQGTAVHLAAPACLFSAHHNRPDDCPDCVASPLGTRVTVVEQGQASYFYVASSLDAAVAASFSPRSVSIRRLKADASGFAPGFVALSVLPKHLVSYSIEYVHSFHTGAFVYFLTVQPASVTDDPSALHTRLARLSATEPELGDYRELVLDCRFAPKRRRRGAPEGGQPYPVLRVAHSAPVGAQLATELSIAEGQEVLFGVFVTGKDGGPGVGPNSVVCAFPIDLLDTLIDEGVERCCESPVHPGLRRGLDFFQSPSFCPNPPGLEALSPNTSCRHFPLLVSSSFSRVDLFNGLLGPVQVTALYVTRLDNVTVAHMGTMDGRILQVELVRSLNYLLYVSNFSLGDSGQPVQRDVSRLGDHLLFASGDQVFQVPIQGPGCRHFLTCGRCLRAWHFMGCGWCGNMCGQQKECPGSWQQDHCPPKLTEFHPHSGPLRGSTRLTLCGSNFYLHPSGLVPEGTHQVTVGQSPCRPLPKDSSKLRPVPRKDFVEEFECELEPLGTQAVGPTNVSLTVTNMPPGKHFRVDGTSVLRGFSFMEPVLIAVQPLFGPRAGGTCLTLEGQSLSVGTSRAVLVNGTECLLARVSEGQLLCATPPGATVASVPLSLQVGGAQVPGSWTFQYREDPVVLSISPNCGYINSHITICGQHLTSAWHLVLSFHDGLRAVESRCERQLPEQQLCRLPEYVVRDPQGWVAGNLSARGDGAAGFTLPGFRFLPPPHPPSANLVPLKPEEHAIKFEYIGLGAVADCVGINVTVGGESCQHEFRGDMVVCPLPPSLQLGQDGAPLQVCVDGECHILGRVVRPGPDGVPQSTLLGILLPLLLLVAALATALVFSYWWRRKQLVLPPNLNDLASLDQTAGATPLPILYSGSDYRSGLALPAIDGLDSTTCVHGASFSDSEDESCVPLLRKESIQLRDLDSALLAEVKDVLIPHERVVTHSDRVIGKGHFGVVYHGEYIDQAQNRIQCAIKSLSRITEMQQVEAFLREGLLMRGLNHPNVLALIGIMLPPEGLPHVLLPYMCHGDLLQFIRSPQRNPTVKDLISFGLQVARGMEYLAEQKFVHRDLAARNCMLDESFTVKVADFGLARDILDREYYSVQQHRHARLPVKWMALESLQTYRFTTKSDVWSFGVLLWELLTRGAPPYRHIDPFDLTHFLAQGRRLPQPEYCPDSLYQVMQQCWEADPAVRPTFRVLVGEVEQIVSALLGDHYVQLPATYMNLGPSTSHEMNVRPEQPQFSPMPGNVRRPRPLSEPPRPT
Outline: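 Reaction was started with enzyme and run 30 min at RT. PT66 donor/acceptor beads in an EDTA-containing Tris pH 7.5 buffer were then added, and the signal was read after 1 h.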

Sequence of MET (human) (P08581 25-1390): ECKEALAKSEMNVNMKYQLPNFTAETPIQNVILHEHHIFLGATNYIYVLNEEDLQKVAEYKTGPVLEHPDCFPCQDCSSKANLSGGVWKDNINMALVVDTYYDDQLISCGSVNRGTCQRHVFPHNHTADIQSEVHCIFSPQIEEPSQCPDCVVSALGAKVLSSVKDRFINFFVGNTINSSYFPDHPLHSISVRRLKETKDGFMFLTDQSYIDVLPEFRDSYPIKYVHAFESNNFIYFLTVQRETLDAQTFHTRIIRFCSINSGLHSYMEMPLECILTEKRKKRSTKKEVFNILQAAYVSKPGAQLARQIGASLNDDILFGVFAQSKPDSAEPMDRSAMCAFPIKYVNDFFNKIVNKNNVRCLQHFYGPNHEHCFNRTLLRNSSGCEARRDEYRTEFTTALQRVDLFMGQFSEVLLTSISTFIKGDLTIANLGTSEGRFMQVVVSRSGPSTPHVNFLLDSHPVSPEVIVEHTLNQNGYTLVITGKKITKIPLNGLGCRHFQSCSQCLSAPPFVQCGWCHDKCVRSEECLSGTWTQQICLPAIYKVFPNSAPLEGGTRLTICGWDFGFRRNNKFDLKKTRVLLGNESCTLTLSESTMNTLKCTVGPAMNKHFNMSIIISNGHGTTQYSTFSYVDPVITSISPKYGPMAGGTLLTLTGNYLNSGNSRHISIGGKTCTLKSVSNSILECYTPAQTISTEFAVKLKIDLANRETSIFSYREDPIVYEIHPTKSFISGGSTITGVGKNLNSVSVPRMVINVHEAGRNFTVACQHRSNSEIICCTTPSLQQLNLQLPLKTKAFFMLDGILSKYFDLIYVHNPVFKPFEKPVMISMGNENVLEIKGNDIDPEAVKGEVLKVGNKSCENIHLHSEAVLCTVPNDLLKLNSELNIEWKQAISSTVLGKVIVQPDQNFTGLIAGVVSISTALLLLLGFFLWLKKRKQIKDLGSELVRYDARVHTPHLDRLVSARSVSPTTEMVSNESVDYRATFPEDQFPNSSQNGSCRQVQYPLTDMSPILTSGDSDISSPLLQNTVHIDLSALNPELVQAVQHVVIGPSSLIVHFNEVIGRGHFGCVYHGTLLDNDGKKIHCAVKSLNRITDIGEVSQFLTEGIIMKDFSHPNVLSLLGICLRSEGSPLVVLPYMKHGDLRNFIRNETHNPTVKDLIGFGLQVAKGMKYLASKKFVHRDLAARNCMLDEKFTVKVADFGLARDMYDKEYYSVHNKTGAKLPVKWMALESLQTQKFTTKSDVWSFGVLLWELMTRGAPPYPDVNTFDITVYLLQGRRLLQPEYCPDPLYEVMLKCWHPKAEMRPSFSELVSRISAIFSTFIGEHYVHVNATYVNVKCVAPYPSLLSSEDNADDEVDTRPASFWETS

Row | Structure (SMILES) | IC50 (MET (human)) | IC50 (RON (human))
1 | C[C@@H](Oc1c(N)ncc2c(C3=CCN(CC#N)CC3)coc12)c1c(Cl)ccc(F)c1Cl [Example 321, (4-{6-Amino-7-[(R)-1-(2,6-dichloro-3-fluorophenyl)ethoxy]furo[3,2-c]pyridin-3-yl}-3,6-dihydro-2H-pyridin-1-yl)acetonitrile] | < 500 nM | 500 to 5000 nM
2 | C[C@@H](Oc1c(N)ncc2c(C3=CCN(C(=O)C(N)C(F)(F)F)CC3)coc12)c1c(Cl)ccc(F)c1Cl (stereo partly drawn) [Example 260, 2-Amino-1-[4-{6-amino-7-[(1R)-1-(2,6-dichloro-3-fluorophenyl)-ethoxy]furo[3,2-c]pyridin-3-yl}-3,6-dihydropyridin-1(2H)-yl]-3,3,3-trifluoropropan-1-one] | 500 to 5000 nM | 500 to 5000 nM
3 | CNC(=O)c1ccc(C(C)Oc2c(N)ncc3c(-c4cnn(C5CCNCC5)c4)coc23)cc1 (centres unmarked) [Example 421, 4-{1-[6-Amino-3-(1-piperidin-4-yl-1H-pyrazol-4-yl)furo[3,2-c]pyridin-7-yloxy]ethyl}-N-methylbenzamide] | 500 to 5000 nM | 5000 to 20000 nM
4 | C[C@@H](Oc1c(N)ncc2c(-c3ccc(C(=O)O)cc3)coc12)c1c(Cl)ccc(F)c1Cl [Example 65, 4-{6-Amino-7-[(R)-1-(2,6-dichloro-3-fluorophenyl)ethoxy]-furo[3,2-c]pyridin-3-yl}benzoic Acid] | 500 to 5000 nM | 500 to 5000 nM
5 | C[C@@H](Oc1c(N)ncc2c(-c3cnn(C4CCNCC4)c3)coc12)c1ccncc1 [Example 397, 3-(1-Piperidin-4-yl-1H-pyrazol-4-yl)-7-((R)-1-pyridin-4-yl-ethoxy)furo[3,2-c]pyridin-6-ylamine] | 500 to 5000 nM | 500 to 5000 nM
6 | C[C@@H](Oc1c(N)ncc2c(-c3ccc(C(N)=O)cc3)coc12)c1c(Cl)ccc(F)c1Cl [Example 63, 4-{6-Amino-7-[(R)-1-(2,6-dichloro-3-fluorophenyl)ethoxy]-furo[3,2-c]pyridin-3-yl}benzamide] | 500 to 5000 nM | 500 to 5000 nM
7 | C[C@H](Oc1c(N)ncc2c(-c3cnn(C4CCNCC4)c3)coc12)c1nnc2ccc(-c3cnn(C)c3)nn12 [Example 479, 7-{(1S)-1-[6-(1-methyl-1H-pyrazol-4-yl) [1,2,4]triazolo[4,3-b]pyridazin-3-yl]ethoxy}-3-[1-(piperidin-4-yl)-1H-pyrazol-4-yl]furo[3,2-c]pyridin-6-amine] | 500 to 5000 nM | 5000 to 20000 nM
8 | C[C@@H](Oc1c(N)ncc2c(C3=CCN(C(=O)Nc4ccccc4Cl)CC3)coc12)c1c(Cl)ccc(F)c1Cl [Example 152, 4-{6-Amino-7-[(1R)-1-(2,6-dichloro-3-fluorophenyl)ethoxy]furo[3,2-c]pyridin-3-yl}-N-(2-chlorophenyl)-3,6-dihydropyridine-1(2H)-carboxamide] | 500 to 5000 nM | 500 to 5000 nM
9 | CC(Oc1c(N)ncc2c(-c3cnn(C4CCNCC4)c3)coc12)c1ccc(Cl)cc1F (centres unmarked) [Example 378, 7-[1-(4-Chloro-2-fluorophenyl)ethoxy]-3-(1-piperidin-4-yl-1H-pyrazol-4-yl)furo[3,2-c]pyridin-6-ylamine] | < 500 nM | 500 to 5000 nM
10 | CC(Oc1c(N)ncc2c(-c3cnn(C4CCNCC4)c3)coc12)c1ccc(C(F)(F)F)cc1 (centres unmarked) [Example 348, 3-(1-Piperidin-4-yl-1H-pyrazol-4-yl)-7-[1-(4-trifluoromethyl-phenyl)ethoxy]furo[3,2-c]pyridin-6-ylamine] | < 500 nM | 500 to 5000 nM
11 | CNC(=O)c1cccc(-c2coc3c(O[C@H](C)c4c(Cl)ccc(F)c4Cl)c(N)ncc23)c1 [Example 68, 3-{6-Amino-7-[(R)-1-(2,6-dichloro-3-fluorophenyl)ethoxy]-furo[3,2-c]pyridin-3-yl}-N-methylbenzamide] | 500 to 5000 nM | 500 to 5000 nM
12 | C[C@@H](Oc1c(N)ncc2c(C3=CCN(C(=O)CN(C)C)CC3)coc12)c1c(Cl)ccc(F)c1Cl [Example 9, 1-(4-{6-Amino-7-[(R)-1-(2,6-dichloro-3-fluorophenyl)ethoxy]-furo[3,2-c]pyridin-3-yl}-3,6-dihydro-2H-pyridin-1-yl)-2-dimethylaminoethanone] | < 500 nM | < 500 nM
13 | C[C@@H](Oc1c(N)ncc2c(C3=CCN(C(=O)C(C)(C)N)CC3)coc12)c1c(Cl)ccc(F)c1Cl [Example 24, 2-Amino-1-(4-{6-amino-7-[(R)-1-(2,6-dichloro-3-fluorophenyl)-ethoxy]-furo[3,2-c]pyridin-3-yl}-3,6-dihydro-2H-pyridin-1-yl)-2-methylpropan-1-one] | < 500 nM | < 500 nM
14 | COc1ccccc1CC(C)Oc1c(N)ncc2c(-c3cnn(C4CCNCC4)c3)coc12 (centres unmarked) [Example 406, 7-[2-(2-Methoxyphenyl)-1-methylethoxy]-3-(1-piperidin-4-yl-1H-pyrazol-4-yl)furo[3,2-c]pyridin-6-ylamine] | < 500 nM | < 500 nM
15 | CCCN1CC=C(c2coc3c(O[C@H](C)c4c(Cl)ccc(F)c4Cl)c(N)ncc23)CC1 [Example 42, 7-[(R)-1-(2,6-Dichloro-3-fluorophenyl)-ethoxy]-3-(1-propyl-1,2,3,6-tetrahydropyridin-4-yl)-furo[3,2-c]pyridin-6-ylamine] | < 500 nM | < 500 nM
16 | C[C@@H]1CN[C@@H](C)CN1C(=O)c1ccc(-c2coc3c(O[C@H](C)c4c(Cl)ccc(F)c4Cl)c(N)ncc23)cc1 [Example 295] | 500 to 5000 nM | 500 to 5000 nM

More lines, now with the values ahead:

Row | IC50 (MET (human)) | IC50 (RON (human)) | Structure (SMILES)
17 | < 500 nM | < 500 nM | C[C@@H](Oc1c(N)ncc2c(-c3csc(CN4CCCC4)c3)coc12)c1c(Cl)ccc(F)c1Cl [Example 308, 7-[(R)-1-(2,6-Dichloro-3-fluorophenyl)ethoxy]-3-(5-pyrrolidin-1-ylmethylthiophen-3-yl)furo[3,2-c]pyridin-6-ylamine]
18 | < 500 nM | 500 to 5000 nM | C[C@@H](Oc1c(N)ncc2c(-c3ccc(C(=O)N(C)C)cc3)coc12)c1c(Cl)ccc(F)c1Cl [Example 72, 4-{6-Amino-7-[(R)-1-(2,6-dichloro-3-fluorophenyl)ethoxy]-furo[3,2-c]pyridin-3-yl}-N,N-dimethylbenzamide]
19 | < 500 nM | < 500 nM | C[C@@H](Oc1c(N)ncc2c(C3=CCN(C(=O)[C@@H]4CCCN4C)CC3)coc12)c1c(Cl)ccc(F)c1Cl [Example 18, (4-{6-Amino-7-[(R)-1-(2,6-dichloro-3-fluorophenyl)-ethoxy]-furo[3,2-c]pyridin-3-yl}-3,6-dihydro-2H-pyridin-1-yl)-((S)-1-methylpyrrolidin-2-yl)-methanone]
20 | < 500 nM | < 500 nM | CC(Oc1c(N)ncc2c(-c3cnn(C4CCNCC4)c3)coc12)c1c(Cl)cc(Br)cc1Cl (centres unmarked) [Example 442, 7-[1-(4-Bromo-2,6-dichlorophenyl)ethoxy]-3-(1-piperidin-4-yl-1H-pyrazol-4-yl)furo[3,2-c]pyridin-6-ylamine]
21 | < 500 nM | < 500 nM | C[C@H](N)C(=O)N1CC=C(c2coc3c(O[C@H](C)c4c(Cl)ccc(F)c4Cl)c(N)ncc23)CC1 [Example 251, (2S)-2-Amino-1-[4-{6-amino-7-[(1R)-1-(2,6-dichloro-3-fluoro-phenyl)ethoxy]furo[3,2-c]pyridin-3-yl}-3,6-dihydropyridin-1(2H)-yl]propan-1-one]
22 | < 500 nM | < 500 nM | C[C@@H](Oc1c(N)ncc2c(-c3csc(C(=O)N4CCN(C)CC4)c3)coc12)c1c(Cl)ccc(F)c1Cl [Example 316, (4-{6-Amino-7-[(R)-1-(2,6-dichloro-3-fluorophenyl)ethoxy]furo[3,2-c]pyridin-3-yl}thiophen-2-yl)-(4-methylpiperazin-1-yl)methanone]
23 | < 500 nM | 500 to 5000 nM | CCC(Oc1c(N)ncc2c(-c3cnn(C4CCNCC4)c3)coc12)c1c(Cl)cccc1Cl (centres unmarked) [Example 340, 7-[1-(2,6-Dichlorophenyl)propoxy]-3-(1-piperidin-4-yl-1H-pyrazol-4-yl)furo[3,2-c]pyridin-6-ylamine]
24 | < 500 nM | < 500 nM | CC(Oc1c(N)ncc2c(-c3cnn(C4CCNCC4)c3)coc12)c1c(Cl)cccc1Br (centres unmarked) [Example 361, 7-[1-(2-Bromo-6-chlorophenyl)ethoxy]-3-(1-piperidin-4-yl-1H-pyrazol-4-yl)furo[3,2-c]pyridin-6-ylamine]
25 | < 500 nM | < 500 nM | C[C@@H]1CN(Cc2cc(-c3coc4c(O[C@H](C)c5c(Cl)ccc(F)c5Cl)c(N)ncc34)cs2)C[C@H](C)N1 [Example 305, 7-[(R)-1-(2,6-Dichloro-3-fluorophenyl)ethoxy]-3-[5-(cis-3,5-dimethylpiperazin-1-ylmethyl)thiophen-3-yl]-furo[3,2-c]pyridin-6-ylamine]
26 | < 500 nM | 5000 to 20000 nM | C[C@@H](Oc1c(N)ncc2c(-c3cnn(C4CCNCC4)c3)coc12)c1nnc2ccc(-c3cnn(C)c3)nn12 [Example 469, 7-{(1R)-1-[6-(1-methyl-1H-pyrazol-4-yl) [1,2,4]triazolo[4,3-b]pyridazin-3-yl]ethoxy}-3-[1-(piperidin-4-yl)-1H-pyrazol-4-yl]furo[3,2-c]pyridin-6-amine]
27 | < 500 nM | < 500 nM | C[C@@H](Oc1c(N)ncc2c(-c3cnn(C4CCNCC4)c3)c(C#CC(C)(C)O)oc12)c1c(Cl)ccc(F)c1Cl [Example 171, 4-[6-Amino-7-[(R)-1-(2,6-dichloro-3-fluorophenyl)ethoxy]-3-(1-piperidin-4-yl-1H-pyrazol-4-yl)-furo[3,2-c]pyridin-2-yl]-2-methylbut-3-yn-2-ol]
28 | < 500 nM | 500 to 5000 nM | C[C@@H](Oc1c(N)ncc2c(C3=CCN(S(=O)(=O)C4CC4)CC3)coc12)c1c(Cl)ccc(F)c1Cl [Example 48, 3-(1-Cyclopropanesulfonyl-1,2,3,6-tetrahydropyridin-4-yl)-7-[(R)-1-(2,6-dichloro-3-fluorophenyl)-ethoxy]-furo[3,2-c]pyridin-6-ylamine]
